The values below come from patent publication US7285555B2, “6-aryl-7-halo-imidazo[1,2-a]pyrimidines as anticancer agents” (Wyeth Holdings Corporation, priority 2003, dated 2007).

By IC50 is commonly meant the midpoint of a concentration-inhibition curve. By melting point is commonly meant the temperature, or range, at which the solid turns liquid.

One series relates to KB-8-5 cells. Description: SRB cytotoxicity test procedure with KB-8-5 cells. The class given is cell-based, human. Particulars: SRB assay. The text has this:
(§1) Human cancer cell lines, unless otherwise noted, are obtained from the American Type Culture Collection (Rockville, Md.). The following drug-sensitive parental cell lines, and their derived drug-resistant counterparts, are obtained from the originators as listed: (a) S1 (parental line from a subclone of human colon carcinoma line LS174T) and derived S1-M1-3.2 (herein called S1-M1) which expresses the MXR drug transporter protein, are provided by Dr. L. Greenberger, Wyeth Research (Rabindran, S. K., He, H., Singh, M., Brown, E., Collins, K. I., Annable, T., and Greenberger, L. M. Reversal of a novel multidrug resistance mechanism in human colon carcinoma cells by fumitremorgin C. Cancer Res., 58: 5850-5858,1998); (b) parental HL-60 human promyelocytic leukemia line and derived HL-60/ADR, which expresses the MRP1 drug transporter protein, are provided by Dr. M. Center, University of Kansas (McGrath, T., and Center, M. S. Adriamycin resistance in HL60 cells in the absence of detectable P-glycoprotein. Biochem. Biophys. […] J. Biol. Chem., 261: 7762-7770, 1986) via Dr. L. Greenberger, Wyeth Research.
The SRB standard cytotoxicity assay is done according to previously reported methods (Discafani, C. M., Carroll, M. L., Floyd Jr., M. B. F., Hollander, I. J., Husain, Z., Johnson, B. D., Kitchen, D., May, M. K., Malo, M. S., Minnick Jr., A. A., Nilakantan, R., Shen, R., Wang Y-F., Wissner, A., Greenberger, L. M. Irreversible inhibition of epidermal growth factor receptor tyrosine kinase with in vivo activity by N-[4-[3-bromophenyl)amino]-6-quinaxolinyl]-2-butynamide (CL-387,785). Biochem. Pharmacol., 57: 917-925, 1999). Briefly, cells are plated in 100 μL of medium in 96-well flat-bottom microtiter plates in the morning of day 1 and allowed to adhere to the plates for 2-6 hr. Compounds are serially diluted into medium as 2× stocks and 100 μL of these stocks are added to cells in duplicate. Compounds are incubated with cells for 3 days. At the end of the incubation period the sulforhodamine B (SRB) assay, which measures protein content as an assessment of cell survival, is performed as described previously (Skehan, P., Storeng, R., Scudiero, D., Monks, A., McMahon, J., Vistica, D., Warren, J. T., Bokesch, H., Kenney, S., Boyd, M. R. New calorimetric cytotoxicity assay for anticancer-drug screening. J. Natl. Cancer Inst., 82:1107-1112, 1990) with some modifications. Medium is gently decanted from plates and replaced with 200 μL per well of cold serum-free medium containing a final concentration of 10% trichloroacetic acid. The plates are incubated for 1 hr at 40, washed 5 times in cold distilled water, and air-dried overnight. […] Absorbance is read on a Victor V multi-label plate reader (Perkin Elmer, Gaithersburg, Md.). […]

Another series has as its system KB-V1 cells. Description: SRB cytotoxicity test procedure with KB-V1 cells. The class given is cell-based, human. Particulars: SRB assay.
Description: as §1
The SRB standard cytotoxicity assay is done according to previously reported methods (Discafani, C. M., Carroll, M. L., Floyd Jr., M. B. F., Hollander, I. J., Husain, Z., Johnson, B. D., Kitchen, D., May, M. K., Malo, M. S., Minnick Jr., A. A., Nilakantan, R., Shen, R., Wang Y-F., Wissner, A., Greenberger, L. M. Irreversible inhibition of epidermal growth factor receptor tyrosine kinase with in vivo activity by N-[4-[3-bromophenyl)amino]-6-quinaxolinyl]-2-butynamide (CL-387,785). Biochem. Pharmacol., 57: 917-925, 1999). Briefly, cells are plated in 100 μL of medium in 96-well flat-bottom microtiter plates in the morning of day 1 and allowed to adhere to the plates for 2-6 hr. Compounds are serially diluted into medium as 2× stocks and 100 μL of these stocks are added to cells in duplicate. Compounds are incubated with cells for 3 days. At the end of the incubation period the sulforhodamine B (SRB) assay, which measures protein content as an assessment of cell survival, is performed as described previously (Skehan, P., Storeng, R., Scudiero, D., Monks, A., McMahon, J., Vistica, D., Warren, J. T., Bokesch, H., Kenney, S., Boyd, M. R. New calorimetric cytotoxicity assay for anticancer-drug screening. J. Natl. Cancer Inst., 82:1107-1112, 1990) with some modifications. Medium is gently decanted from plates and replaced with 200 μL per well of cold serum-free medium containing a final concentration of 10% trichloroacetic acid. The plates are incubated for 1 hr at 40, washed 5 times in cold distilled water, and air-dried overnight. The fixed cells are stained for 10 min with 80 μL per well of 0.04% SRB solution prepared in 1% glacial acetic acid. Staining solution is decanted, plates are washed 5 times in 1% glacial acetic acid, and then air-dried until completely dry. Stained cell product is dissolved in 150 μL per well of 10 mM Trizma Base with shaking for 20 minutes. Absorbance is read on a Victor V multi-label plate reader (Perkin Elmer, Gaithersburg, Md.).
The KB lines express different amounts of the P-glycoprotein (MDR1) membrane pump which produces resistance to the action of many cytotoxic compounds, including paclitaxel and vincristine. The parental KB line expresses no P-glycoprotein, KB-8-5 expresses moderate levels of the protein, and KB-V1 expresses very high levels.
In general terms: In SRB staining, fixed cells bind dye roughly in proportion to their protein.

The subject of a further series is KB cells. Description: SRB cytotoxicity test procedure with KB cells. In kind it is cell-based. Particulars: Homo sapiens, SRB assay, means of 2 independent experiments. An excerpt: Human cancer cell lines, unless otherwise noted, are obtained from the American Type Culture Collection (Rockville, Md.). […]
The SRB standard cytotoxicity assay is done according to previously reported methods (Discafani, C. M., Carroll, M. L., Floyd Jr., M. B. F., Hollander, I. J., Husain, Z., Johnson, B. D., Kitchen, D., May, M. K., Malo, M. S., Minnick Jr., A. A., Nilakantan, R., Shen, R., Wang Y-F., Wissner, A., Greenberger, L. M. Irreversible inhibition of epidermal growth factor receptor tyrosine kinase with in vivo activity by N-[4-[3-bromophenyl)amino]-6-quinaxolinyl]-2-butynamide (CL-387,785). […] Absorbance is read on a Victor V multi-label plate reader (Perkin Elmer, Gaithersburg, Md.). […]

The subject of another series is COLO 205 cells. Description: MTS cytotoxicity test procedure with COLO 205 cells. The class given is cell-based. Particulars: Homo sapiens, 72 h, MTS assay, three days of culture. The protocol:
The MTS assay, which is sold in kit form by Promega (Madison, Wis.; CellTiter 96 AQueous Non-Radioactive Cell Proliferation Assay), is based on the conversion by viable cells, but not by dead cells, of the tetrazolium salt, MTS (3-(4,5-dimethylthiazol-2-yl)-5-(3-carboxymethoxyphenyl)-2-(4-sulphophenyl)-2H-tetrazolium, inner salt), into a water-soluble colored formazan which is detected by spectrophotometry. Compounds are tested at nine concentrations, in order to determine IC50 values. For the test procedure, cells are harvested by trypsinization (or, in the case of non-adherent cells, by simple resuspension), washed, counted and distributed to wells of 96-well flat-bottom microtiter plates at 1000 cells per well in 200 μL of medium. In addition, one row of wells on a separate plate receives cells as above (“time 0” plate). All plates are incubated at 370 in humidified 5% CO2 in air for about 24 hr.
On day 2, compounds for test are diluted and added to wells. Compounds are dissolved in DMSO at 10 mg/mL. For each compound, nine serial 2-fold dilutions are prepared in DMSO. Ten μL of each dilution in DMSO is transferred to 100 μL of medium, mixed well, and then 5 μL of this dilution is transferred in quadruplicate to wells containing cells. The final high concentration of each compound is typically 1-5 μM. Plates are returned to the incubator for three days. At the time of drug addition to the experimental plates, the MTS assay is run on the “time 0” plate. This gives the “time 0 MTS value” which is related to the number of viable cells per well at the time of drug addition.
After three days of culture with test compounds (day 5 overall), the MTS assay is done on all wells of the experimental plates. The absorbance values of the quadruplicate sample wells are averaged and divided by the average of the “time 0” values. The average of control wells without drug, divided by the average “time 0” value, gives the maximal relative increase in MTS color yield due to cell growth during the final three days of culture. The average of control wells with high drug concentration, divided by the “time 0” value, gives the minimal relative color yield for cells that were completely killed. The nine values for each compound are plotted against concentration, and the concentration that produces a relative color yield half way between the maximum and minimum is taken as the IC50 value.
COLO 205 is a human colon carcinoma cell line that is used for comparative testing of the examples of this invention and several reference compounds (Table 1). This line is sensitive to paclitaxel and vincristine.

For the compound `CN(C)CCCOc1cc(F)c(-c2c(Cl)nc3nccn3c2NCC(F)(F)F)c(F)c1` [Example 4, 7-chloro-6-{4-[3-(dimethylamino)propoxy]-2,6-difluorophenyl}-N-(2,2,2-trifluoroethyl)imidazo[1,2-a]pyrimidin-5-amine], the melting point lay within 52 to 55 °C. For the same compound, the IC50 with KB-8-5 cells (Homo sapiens, KB 8.5 cells, means of 2 independent experiments) worked out at 59 nM. Besides, the “Ratio 8.5/KB” value with KB-8-5 cells (IC50 on KB 8.5 cells/IC50 on KB cells) amounted to 2.5. In addition, the half-inhibitory concentration (IC50) in the series on KB-V1 cells (Homo sapiens, KB-V1, KB VI cells, means of 2 independent experiments) amounted to 2390 nM. Also, the “Ratio VI/KB” value in the series with KB-V1 cells (IC50 on KB VI cells/IC50 on KB cells) is given as 99. This compound yielded a concentration for half-maximal inhibition (IC50) in the series with KB cells of 24 nM. The same compound registered an IC50 in the series with COLO 205 cells of 88 nM.
